Measurements reported in patent US11040949B2, “Compounds affecting pigment production and methods for treatment of bacterial diseases” (Versitech Limited, priority 2017, dated 2021).

Tested on: S. aureus USA300
Test: In vitro staphyloxanthin production inhibition by NP-16 analogues
Type: cell-based, Staphylococcus aureus
Settings: S. aureus USA300, methanol extract OD 450 nm, 300 nM to 700 nM
Method: Evaluation of NP-16 analogues in Staphyloxanthin production
The in vitro pigment inhibition studies were performed by S. aureus USA300 cultured in BHI with or without the presence of inhibitor compounds at 37° C. and 250 rpm for 36-48 hours. The bacteria were washed twice with PBS prior to the staphyloxanthin purification with methanol. The OD of the extracts were monitor at 450 nm using DTX880 multi-plate reader spectrophotometer (Beckman). The concentration range tested for the compounds were between 300 nM to 700 nM, and control groups were added with equal volume of DMSO.
The cytotoxicity of NP-16 and some of its analogues was tested against Raw 264.7 cells, and the cell tolerance of each compounds were documented in Table 3. Along with the in vitro staphyloxanthin production of the NP-16 analogues were being tested, the compounds can exert staphyloxanthin production inhibition. The staphyloxanthin from the overnight-cultured bacteria were extracted with methanol and quantified in via spectrophotometry. The results were presented in relative ratio to NP-16 in both the inhibition ratio as well as the TC50 (concentration for decreasing cell viability by 50%) in Table 3 (sample names correspond to those listed in Table 1).

Structure (SMILES): O=C(/C=C/c1ccccc1Br)Nc1ccc(S(=O)(=O)N2CCCCC2)cc1 [NP16-XL-016, 3-(6-bromophenyl)-N-[4-(1-piperidine-1-sulfonyl)phenyl]-acrylamide]
- Relative ratio to NP16 based on inhibition ratio: 2.71
